{
  "source": "patent US20040192680A1",
  "about": "“Novel amides that activate soluble guanylate cyclase” (priority 2002, published 2004)",
  "target": "T1, soluble guanylate cyclase (α1 and β1 subunits of guanylate cyclase, expressed in Sf9 cells) (Homo sapiens, UniProt Q02108+Q02153)",
  "T1 construct": "made in house; host or cells: Sf9 insect cells (baculovirus co-infection); high-speed supernatant used unpurified",
  "T1 sequence (Q02108 1-690)": "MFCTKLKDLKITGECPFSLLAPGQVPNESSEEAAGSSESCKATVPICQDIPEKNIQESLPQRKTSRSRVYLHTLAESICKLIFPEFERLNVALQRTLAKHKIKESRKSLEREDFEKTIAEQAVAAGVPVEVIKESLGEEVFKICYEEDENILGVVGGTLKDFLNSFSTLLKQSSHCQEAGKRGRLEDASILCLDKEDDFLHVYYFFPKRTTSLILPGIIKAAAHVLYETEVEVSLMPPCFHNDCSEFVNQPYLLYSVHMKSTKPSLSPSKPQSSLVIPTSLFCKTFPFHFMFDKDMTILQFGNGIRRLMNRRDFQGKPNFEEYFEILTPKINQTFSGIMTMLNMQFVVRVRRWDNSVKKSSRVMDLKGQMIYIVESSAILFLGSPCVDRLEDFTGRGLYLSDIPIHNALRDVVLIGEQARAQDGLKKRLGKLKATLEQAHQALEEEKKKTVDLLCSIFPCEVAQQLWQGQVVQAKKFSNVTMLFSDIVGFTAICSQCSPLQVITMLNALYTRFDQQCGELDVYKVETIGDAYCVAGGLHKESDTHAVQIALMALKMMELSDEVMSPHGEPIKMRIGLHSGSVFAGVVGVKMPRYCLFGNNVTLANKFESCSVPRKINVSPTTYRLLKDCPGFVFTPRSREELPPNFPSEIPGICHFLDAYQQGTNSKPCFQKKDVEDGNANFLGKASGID",
  "T1 sequence (Q02153 1-619)": "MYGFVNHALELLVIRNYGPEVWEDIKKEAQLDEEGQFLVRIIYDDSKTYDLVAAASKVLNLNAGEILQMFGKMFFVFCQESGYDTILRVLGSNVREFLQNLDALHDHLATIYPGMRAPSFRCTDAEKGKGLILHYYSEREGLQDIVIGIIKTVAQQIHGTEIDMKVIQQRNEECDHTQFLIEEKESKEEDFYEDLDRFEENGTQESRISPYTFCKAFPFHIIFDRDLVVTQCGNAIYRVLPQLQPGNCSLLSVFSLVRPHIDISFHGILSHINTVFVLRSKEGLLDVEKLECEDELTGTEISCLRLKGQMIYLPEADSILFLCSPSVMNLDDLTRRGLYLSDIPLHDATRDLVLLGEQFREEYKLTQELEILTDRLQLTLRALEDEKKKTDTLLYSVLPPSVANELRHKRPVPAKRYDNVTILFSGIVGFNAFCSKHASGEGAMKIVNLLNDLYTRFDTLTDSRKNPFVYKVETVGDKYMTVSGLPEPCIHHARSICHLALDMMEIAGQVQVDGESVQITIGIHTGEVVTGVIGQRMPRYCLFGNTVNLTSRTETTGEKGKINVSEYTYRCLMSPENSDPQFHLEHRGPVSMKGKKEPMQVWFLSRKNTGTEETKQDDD",
  "experiment": "Guanylate Cyclase Assay (formation of cyclic GMP from GTP, with and without SNP)",
  "type": "biochemical",
  "conditions": "compound at 100 μM without SNP; normalized with the activity of 100 μM YC-1 (without SNP) as 100%",
  "description": "Sf9 cells were cultured in Sf-90011 medium supplemented with 10% (v/v) fetal calf serum at 28° C. to give a count of 6×10^5 cells/ml. The cells were then infected with a mixture of the virus stocks for the α1 and β1 subunits of guanylate cyclase at a multiplicity of infection of 0.1 pfu/cell. The cells were harvested 72 hours after infection and were pelleted by centrifugation. The resulting cell pellets were homogenized with Polytron homogenizer in 3 volumes of 20 mM Tris-HCl (pH 7.6) containing 1 mM EDTA, 5 mM dithiothreitol, 90 mM NaCl, 10% glycerol, and protease inhibitors mix (Roche Molecular Biochemicals). The homogenate was centrifuged at 50,000×g for 60 minutes and the supernatant was aliquotted and stored at −80° C. […]\nGuanylate cyclase activity was measured by the formation of cyclic GMP from GTP in a total volume of 100 μl. […] The solution was centrifuged at 3000 rpm for 15 minutes at room temperature and cyclic GMP in 20 μl of the resulting supernatant was measured according to the protocol of Amersham cyclic GMP enzymeimmunoassay system (purchased from Sigma, catalogue number RPN 226).\nCompounds of the present invention were tested at 100 μM with and without 1 μM sodium nitro prusside (SNP). […] Mean basal efficacy, in Table 1, was expressed as a percentage of 100 μM YC-1 (without SNP). […]",
  "data": [
    {"smiles": "CC(O)CCNC(=O)/C=C/c1ccccc1Sc1ccc(Cl)cc1", "note": "(stereo not shown) [Example 38, (2E)-3-{2-[(4-chlorophenyl)thio]pheny}-N-(3-hydroxybutyl)acrylamide]", "values": [
      {"measurement": "Mean basal efficacy of compound alone at 100 μM, [%]", "value": 60, "unit": "%"}
    ]}
  ]
}
